US10501425B2, “Microbiocidal oxadiazole derivatives” (SYNGENTA PARTICIPATIONS AG, priority 2015, dated 2019)

What was measured:
[1] = tested on: Glomerella lacenarium (Colletotrichum lagenarium); assay: Glomerella lagenarium liquid culture / cucumber / preventative (anthracnose); type: cell-based; settings: Colletotrichum orbiculare; 20 ppm in the applied formulation; liquid culture (PDB), growth inhibition measured photometrically 3 to 4 days after application; compared to untreated; read-out: disease control
Procedure, shortened: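 Conidia from cryogenic storage were mixed into potato dextrose broth. This was added to compound diluted from DMSO into 0.025% Tween20, tested at 20 ppm. Plates were incubated in the dark at 24 °C and 96% relative humidity, and growth was read photometrically after 2–7 days as % activity versus untreated check.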

[2] = tested on: Puccinia recondita f. Sp. Tritici; assay: Puccinia recondita f. sp. tritici / wheat / leaf disc curative (brown rust); type: in vivo; settings: foliar, 24 h, 200 ppm in the applied formulation, wheat leaf segments cv. Kanzler, curative (applied 1 day after inoculation), compared to untreated, read-out: disease control
Procedure, shortened: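 Curative leaf-segment test, cv. Kanzler: spore inoculation, dark storage 19° C/75% RH, compound spray 1 day post-inoculation. Then 12 h light/12 h dark, 19° C, 75% RH. Read-out: % disease control vs untreated check, 6–8 d after application.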

[3] = tested on: Puccinia recondita f. Sp. Tritici; assay: Puccinia recondita f. sp. tritici / wheat / leaf disc preventative (brown rust); type: in vivo; settings: foliar, 200 ppm in the applied formulation, wheat leaf segments cv. Kanzler, preventative (inoculated 1 day after application), compared to untreated, read-out: disease control
Procedure, shortened: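 Single evaluation 7–9 d after spraying: % disease control compared with untreated leaf segments. Protocol: cv. Kanzler segments, preventative spray at 200 ppm, spore inoculation at day 1, 19° C., 75% rh, 12 h light/12 h dark.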

Phakopsora pachyrhizi = Phakopsora pachyrhizi / soybean / leaf disc preventative (Asian soybean rust); type: in vivo; settings: foliar, 200 ppm in the applied formulation, soybean leaf disks, compared to untreated, read-out: disease control
Procedure: Leaf disks or leaf segments of various plant species are cut from plants grown in a greenhouse. The cut leaf disks or segments are placed in multiwell plates (24-well format) onto water agar. The leaf disks are sprayed with a test solution before (preventative) or after (curative) inoculation. Compounds to be tested are prepared as DMSO solutions (max. 10 mg/ml) which are diluted to the appropriate concentration with 0.025% Tween20 just before spraying. The inoculated leaf disks or segments are incubated under defined conditions (temperature, relative humidity, light, etc.) according to the respective test system. A single evaluation of disease level is carried out 3 to 14 days after inoculation, depending on the pathosystem. Percent disease control relative to the untreated check leaf disks or segments is then calculated.
Soybean leaf disks are placed on water agar in multiwell plates (24-well format) and sprayed with the formulated test compound diluted in water. One day after application leaf discs are inoculated by spraying a spore suspension on the lower leaf surface. After an incubation period in a climate cabinet of 24-36 hours in darkness at 20° C. and 75% rh leaf disc are kept at 20° C. with 12 h light/day and 75% rh. The activity of a compound is assessed as percent disease control compared to untreated when an appropriate level of disease damage appears in untreated check leaf disks (12 to 14 days after application).
The following compounds at 200 ppm in the applied formulation give at least 80% disease control in this test when compared to untreated control leaf disks under the same conditions, which show extensive disease development.

| melting point | Compound | inhibition of growth at 20 ppm [1] | pest or weed control at 200 ppm [2] | pest or weed control at 200 ppm [3] | pest or weed control at 200 ppm (Phakopsora pachyrhizi) |
| --- | --- | --- | --- | --- | --- |
| 163 to 165 °C | CCC(=O)NCc1ccc(-c2noc(C(F)(F)F)n2)cc1OC [Compound 1.30, N-[[2-methoxy-4-[5-(trifluoromethyl)-1,2,4-oxadiazol-3-yl]phenyl]methyl]propanamide] | – | – | – | – |
| 100 to 102 °C | CCC(=O)NCc1ccc(-c2noc(C(F)(F)F)n2)cc1C(F)(F)F [Compound 1.31, N-[[2-(trifluoromethyl)-4-[5-(trifluoromethyl)-1,2,4-oxadiazol-3-yl]phenyl]methyl]propanamide] | – | – | – | – |
| 140 to 143 °C | CCC(=O)NCc1ccc(-c2noc(C(F)(F)F)n2)cc1C [Compound 1.81, N-[[2-methyl-4-[5-(trifluoromethyl)-1,2,4-oxadiazol-3-yl]phenyl]methyl]propanamide] | ≥ 80% | – | – | – |
| – | N#CCC(=O)NCCc1ccc(-c2noc(C(F)(F)F)n2)cc1 [Compound 1.90, 2-cyano-N-[2-[4-[5-(trifluoromethyl)-1,2,4-oxadiazol-3-yl]phenyl]ethyl]acetamide] | ≥ 80% | ≥ 80% | ≥ 80% | ≥ 80% |
| – | CC(=O)NCCc1ccc(-c2noc(C(F)(F)F)n2)cc1 [Compound 1.92, N-[2-[4-[5-(trifluoromethyl)-1,2,4-oxadiazol-3-yl]phenyl]ethyl]acetamide] | ≥ 80% | ≥ 80% | ≥ 80% | ≥ 80% |
| – | COCC(=O)NC(C)(C)c1ccc(-c2noc(C(F)(F)F)n2)cc1 [Compound 1.95, 2-methoxy-N-[1-methyl-1-[4-[5-(trifluoromethyl)-1,2,4-oxadiazol-3-yl]phenyl]ethyl]acetamide] | ≥ 80% | ≥ 80% | ≥ 80% | ≥ 80% |
| – | CC(C)COC(=O)NCc1ccc(-c2noc(C(F)(F)F)n2)cc1 [Compound 2.8, isobutyl N-[[4-[5-(trifluoromethyl)-1,2,4-oxadiazol-3-yl]phenyl]methyl]carbamate] | ≥ 80% | ≥ 80% | ≥ 80% | ≥ 80% |
| – | C=CCOC(=O)NCc1ccc(-c2noc(C(F)(F)F)n2)cc1 [Compound 2.10, allyl N-[[4-[5-(trifluoromethyl)-1,2,4-oxadiazol-3-yl]phenyl]methyl]carbamate] | ≥ 80% | ≥ 80% | ≥ 80% | ≥ 80% |
| – | CCCCOC(=O)NCc1ccc(-c2noc(C(F)(F)F)n2)cc1 [Compound 2.11, butyl N-[[4-[5-(trifluoromethyl)-1,2,4-oxadiazol-3-yl]phenyl]methyl]carbamate] | ≥ 80% | ≥ 80% | ≥ 80% | ≥ 80% |
| – | O=C(NCc1ccc(-c2noc(C(F)(F)F)n2)cc1)OCCCCCl [Compound 2.13, 4-chlorobutyl N-[[4-[5-(trifluoromethyl)-1,2,4-oxadiazol-3-yl]phenyl]methyl]carbamate] | ≥ 80% | ≥ 80% | ≥ 80% | ≥ 80% |
| – | CC(C)OC(=O)NCc1ccc(-c2noc(C(F)(F)F)n2)cc1 [Compound 2.14, isopropyl N-[[4-[5-(trifluoromethyl)-1,2,4-oxadiazol-3-yl]phenyl]methyl]carbamate] | ≥ 80% | ≥ 80% | ≥ 80% | ≥ 80% |
| – | O=C(NCc1ccc(-c2noc(C(F)(F)F)n2)cc1)OCCF [Compound 2.15, 2-fluoroethyl N-[[4-[5-(trifluoromethyl)-1,2,4-oxadiazol-3-yl]phenyl]methyl]carbamate] | ≥ 80% | ≥ 80% | ≥ 80% | ≥ 80% |
| – | O=C(NCc1ccc(-c2noc(C(F)(F)F)n2)cc1)OCCCCl [Compound 2.16, 3-chloropropyl N-[[4-[5-(trifluoromethyl)-1,2,4-oxadiazol-3-yl]phenyl]methyl]carbamate] | ≥ 80% | ≥ 80% | ≥ 80% | ≥ 80% |
| – | O=C(NCc1ccc(-c2noc(C(F)(F)F)n2)cc1)OCCCl [Compound 2.17, 2-chloroethyl N-[[4-[5-(trifluoromethyl)-1,2,4-oxadiazol-3-yl]phenyl]methyl]carbamate] | ≥ 80% | ≥ 80% | ≥ 80% | ≥ 80% |
| – | CC(C)NC(=O)NCc1ccc(-c2noc(C(F)(F)F)n2)cc1 [Compound 3.9, 1-isopropyl-3-[[4-[5-(trifluoromethyl)-1,2,4-oxadiazol-3-yl]phenyl]methyl]urea] | ≥ 80% | ≥ 80% | ≥ 80% | ≥ 80% |
| – | CCNC(=O)NCc1ccc(-c2noc(C(F)(F)F)n2)cc1 [Compound 3.10, 1-ethyl-3-[[4-[5-(trifluoromethyl)-1,2,4-oxadiazol-3-yl]phenyl]methyl]urea] | ≥ 80% | ≥ 80% | ≥ 80% | ≥ 80% |
| – | CCN(CC)C(=O)NCc1ccc(-c2noc(C(F)(F)F)n2)cc1 [Compound 3.12, 1,1-diethyl-3-[[4-[5-(trifluoromethyl)-1,2,4-oxadiazol-3-yl]phenyl]methyl]urea] | ≥ 80% | ≥ 80% | ≥ 80% | ≥ 80% |
| – | CCN(C)C(=O)NCc1ccc(-c2noc(C(F)(F)F)n2)cc1 [Compound 3.13, 1-ethyl-1-methyl-3-[[4-[5-(trifluoromethyl)-1,2,4-oxadiazol-3-yl]phenyl]methyl]urea] | ≥ 80% | ≥ 80% | ≥ 80% | ≥ 80% |
| – | CCONC(=O)NCc1ccc(-c2noc(C(F)(F)F)n2)cc1 [Compound 3.14, 1-ethoxy-3-[[4-[5-(trifluoromethyl)-1,2,4-oxadiazol-3-yl]phenyl]methyl]urea] | ≥ 80% | ≥ 80% | ≥ 80% | ≥ 80% |
| – | C=CCNC(=O)NCc1ccc(-c2noc(C(F)(F)F)n2)cc1 [Compound 3.16, 1-allyl-3-[[4-[5-(trifluoromethyl)-1,2,4-oxadiazol-3-yl]phenyl]methyl]urea] | ≥ 80% | ≥ 80% | ≥ 80% | ≥ 80% |
| – | CONC(=O)NCc1ccc(-c2noc(C(F)(F)F)n2)cc1 [Compound 3.17, 1-methoxy-3-[[4-[5-(trifluoromethyl)-1,2,4-oxadiazol-3-yl]phenyl]methyl]urea] | ≥ 80% | ≥ 80% | ≥ 80% | ≥ 80% |
